Patent publication US12239648B2, “KIF5B-RET fusion molecules and uses thereof” (Foundation Medicine, Inc., priority 2011, dated 2025)

Experiments:
[1] = tested on: KIF5B-RET Ba/F3 cells; test: Effects of drugs on Ba/F3 cells transfected with KIF5B-RET fusion constructs (IL-3 independent growth); assay type: cell-based; details: Ba/F3 cells expressing KIF5B-RET, FIG. 8
Text: FIG. 8 is a graph showing the effects of different drugs on Ba/F3 cells transfected with KIF5B-RET fusion constructs.

[2] = tested on: Thyroid cancers and cell lines harboring PTC-RET translocations; details: PTC/RET translocations overexpressing the RET kinase domain; Henderson 2008, Carlomagno 2006; cited from earlier work

## CNC(=O)c1cc(Oc2ccc(NC(=O)Nc3ccc(Cl)c(C(F)(F)F)c3)cc2)ccn1 [sorafenib]
[1]
  sensitivity of KIF5B-RET transformed Ba/F3 cells to drug: sensitive
[2]
  sensitivity of thyroid cancer and cell lines harboring PTC/RET translocations: sensitive
